Reference: ChEMBL document CHEMBL1201862, “PubChem BioAssay data set” (2004)
Activity calls are given as the source filed them.

Columns and labels:
Protein skinhead-1 = biological target: T1, Protein skinhead-1 (Caenorhabditis elegans, UniProt P34707); format: functional
T1 sequence (P34707 whole entry): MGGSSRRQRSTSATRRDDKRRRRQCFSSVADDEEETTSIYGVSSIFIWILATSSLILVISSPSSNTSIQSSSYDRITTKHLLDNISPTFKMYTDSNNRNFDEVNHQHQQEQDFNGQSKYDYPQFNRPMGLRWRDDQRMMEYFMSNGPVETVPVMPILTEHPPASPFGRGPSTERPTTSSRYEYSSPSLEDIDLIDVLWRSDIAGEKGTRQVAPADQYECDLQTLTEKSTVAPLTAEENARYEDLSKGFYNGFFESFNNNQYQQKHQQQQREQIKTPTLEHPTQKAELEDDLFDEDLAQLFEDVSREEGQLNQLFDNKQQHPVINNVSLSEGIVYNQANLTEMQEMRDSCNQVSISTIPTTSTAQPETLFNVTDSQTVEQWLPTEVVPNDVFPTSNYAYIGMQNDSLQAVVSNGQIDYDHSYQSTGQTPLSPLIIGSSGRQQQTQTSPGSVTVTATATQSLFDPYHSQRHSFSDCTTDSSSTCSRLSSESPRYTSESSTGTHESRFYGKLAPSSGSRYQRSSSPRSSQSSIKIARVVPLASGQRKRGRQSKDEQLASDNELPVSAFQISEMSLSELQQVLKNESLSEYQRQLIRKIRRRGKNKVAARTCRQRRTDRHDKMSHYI

Paired box protein Pax-8 = Paired box protein Pax-8 (Homo sapiens, UniProt Q06710); experiment: PAX8 transcriptional activity inhibition in RMG-I – RMG-I cells, luciferase, cherry-pick, dose response (AID 687027); format: functional, cell-based;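 also: luciferase reporter driven by Pax8 target thyroperoxidase promoter measured by SteadyGlo luminescence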
[1] = biological target: T2, Heat shock factor protein 1 (Mus musculus, UniProt P38532); experiment: decrease of HSF1-responsive luciferase luminescence – cell-based, NIH3T3, dose retest, confirmation (AID 2382); format: functional;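 also: NIH3T3 fibroblasts with HSF1-driven luciferase reporter stressed by proteasome inhibitor MG132; luminescence from HSF1-driven luciferase expression after 8 hours of MG132 stress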
T2 sequence (P38532 whole entry): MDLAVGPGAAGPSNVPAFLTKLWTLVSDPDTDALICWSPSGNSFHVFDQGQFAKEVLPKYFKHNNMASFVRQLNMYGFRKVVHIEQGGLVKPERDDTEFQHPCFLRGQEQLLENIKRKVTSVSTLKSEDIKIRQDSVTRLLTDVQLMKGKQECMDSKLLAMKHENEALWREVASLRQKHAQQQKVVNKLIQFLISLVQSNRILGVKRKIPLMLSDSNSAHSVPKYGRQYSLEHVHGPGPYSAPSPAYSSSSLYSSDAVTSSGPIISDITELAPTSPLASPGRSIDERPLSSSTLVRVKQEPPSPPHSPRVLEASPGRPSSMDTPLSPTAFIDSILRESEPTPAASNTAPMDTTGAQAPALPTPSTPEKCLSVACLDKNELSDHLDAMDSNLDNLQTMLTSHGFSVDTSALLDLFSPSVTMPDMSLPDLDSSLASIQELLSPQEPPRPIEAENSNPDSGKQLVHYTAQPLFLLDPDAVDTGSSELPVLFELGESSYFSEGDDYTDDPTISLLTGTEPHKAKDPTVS

Streptococcus = experiment: GAS UMAA2166 growth inhibition – luminescence, BacTiterGlo, counter-screen for streptokinase expression inhibitor project, dose response (AID 1915); format: functional, organism-based;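 also: potency for reduction of bacterial viability or growth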
Streptokinase A = biological target: T3, Streptokinase A (Streptococcus pyogenes serotype M1, UniProt P10520); experiment: viability-normalized secreted streptokinase activity reduction – plasminogen activation absorbance, OD405, dose response (AID 1914); format: functional, Streptococcus pyogenes M1 GAS;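 also: secreted streptokinase activity via plasminogen activation per viability signal from cell pellet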
T3 sequence (P10520 whole entry): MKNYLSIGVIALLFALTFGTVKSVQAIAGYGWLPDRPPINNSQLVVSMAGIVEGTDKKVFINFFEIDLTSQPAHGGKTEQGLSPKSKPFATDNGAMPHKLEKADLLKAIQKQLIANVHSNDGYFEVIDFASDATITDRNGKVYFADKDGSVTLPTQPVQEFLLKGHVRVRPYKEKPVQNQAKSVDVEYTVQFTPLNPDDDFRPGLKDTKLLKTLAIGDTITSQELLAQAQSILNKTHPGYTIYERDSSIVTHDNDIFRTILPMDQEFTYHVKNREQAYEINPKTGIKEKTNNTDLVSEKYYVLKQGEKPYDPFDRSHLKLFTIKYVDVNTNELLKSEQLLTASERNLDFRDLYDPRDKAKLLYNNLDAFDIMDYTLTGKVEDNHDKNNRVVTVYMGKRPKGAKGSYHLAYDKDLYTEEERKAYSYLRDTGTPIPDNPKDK

[2] = system: Streptococcus sp. 'group A'; experiment: Streptococcus pyogenes SK(-)GAS viability under kanamycin – luminescence, BacTiterGlo, confirmation, counter-screen for streptokinase expression inhibitor project, dose response (AID 1900); format: functional, organism-based
[3] = viability of uninfected HEp-2 cells – cell-based, HTS, cytotoxicity control for RSV inhibitor project, dose response (AID 2410); format: functional; details: human respiratory syncytial virus
[4] = biological target: T4, Rac GTPase-activating protein 1 (Homo sapiens, UniProt Q9H0H5); experiment: blockers of MgcRacGAP-driven Rac1 GTP hydrolysis – biochemical, ADP Hunter fluorescence, primary and confirmatory, confirmation (AID 624330); format: functional
T4 sequence (Q9H0H5 whole entry): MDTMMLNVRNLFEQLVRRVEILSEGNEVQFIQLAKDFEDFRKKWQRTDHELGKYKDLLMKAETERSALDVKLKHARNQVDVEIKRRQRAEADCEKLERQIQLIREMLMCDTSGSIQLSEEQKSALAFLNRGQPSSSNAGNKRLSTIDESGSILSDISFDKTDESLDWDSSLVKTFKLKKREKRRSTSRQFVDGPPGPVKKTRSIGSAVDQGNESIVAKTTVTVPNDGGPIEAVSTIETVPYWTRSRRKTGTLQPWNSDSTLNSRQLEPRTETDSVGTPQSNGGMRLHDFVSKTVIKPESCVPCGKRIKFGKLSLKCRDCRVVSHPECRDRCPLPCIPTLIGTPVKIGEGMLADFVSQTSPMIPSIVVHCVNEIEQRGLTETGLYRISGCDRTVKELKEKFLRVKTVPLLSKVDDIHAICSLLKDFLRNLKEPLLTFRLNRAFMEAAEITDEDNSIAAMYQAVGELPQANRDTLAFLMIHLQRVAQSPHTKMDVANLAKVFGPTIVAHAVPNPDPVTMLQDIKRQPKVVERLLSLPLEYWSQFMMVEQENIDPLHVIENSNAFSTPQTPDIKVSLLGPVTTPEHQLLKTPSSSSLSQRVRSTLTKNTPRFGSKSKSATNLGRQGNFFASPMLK

[5] = biological target: T5, Replicative DNA helicase DnaB (Mycobacterium tuberculosis, UniProt P9WMR3); experiment: DnaB intein splicing inhibitors, dose response, biochemical, cell-free fluorescence (AID 449749); format: functional
T5 sequence (P9WMR3 whole entry): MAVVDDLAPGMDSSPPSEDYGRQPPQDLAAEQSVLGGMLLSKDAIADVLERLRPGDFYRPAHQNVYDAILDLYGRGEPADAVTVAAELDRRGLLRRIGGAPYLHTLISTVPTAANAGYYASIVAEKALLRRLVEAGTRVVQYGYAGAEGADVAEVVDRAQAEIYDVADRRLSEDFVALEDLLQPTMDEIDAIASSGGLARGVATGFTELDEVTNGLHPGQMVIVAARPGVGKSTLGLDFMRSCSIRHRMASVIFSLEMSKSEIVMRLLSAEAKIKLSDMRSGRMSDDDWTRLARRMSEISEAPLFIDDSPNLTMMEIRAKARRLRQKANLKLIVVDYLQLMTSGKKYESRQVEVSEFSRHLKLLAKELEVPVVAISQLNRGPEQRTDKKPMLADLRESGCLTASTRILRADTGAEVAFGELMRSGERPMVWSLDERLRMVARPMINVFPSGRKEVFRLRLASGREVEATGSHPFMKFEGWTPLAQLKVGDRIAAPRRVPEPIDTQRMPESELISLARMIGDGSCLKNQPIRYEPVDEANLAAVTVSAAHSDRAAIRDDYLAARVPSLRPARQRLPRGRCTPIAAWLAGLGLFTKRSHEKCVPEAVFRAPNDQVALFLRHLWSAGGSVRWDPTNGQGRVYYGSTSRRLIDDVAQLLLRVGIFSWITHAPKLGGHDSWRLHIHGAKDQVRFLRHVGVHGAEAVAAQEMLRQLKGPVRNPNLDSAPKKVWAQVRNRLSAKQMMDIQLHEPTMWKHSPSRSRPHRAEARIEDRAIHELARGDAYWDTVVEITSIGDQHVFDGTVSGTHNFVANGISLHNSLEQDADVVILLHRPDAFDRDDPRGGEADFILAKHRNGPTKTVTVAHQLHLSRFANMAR

Protein RecA = biological target: T6, Protein RecA (Mycobacterium tuberculosis, UniProt P9WHJ3); experiment: Fluorescence Cell-Free Homogeneous Dose Retest to Identify Inhibitors of RecA-Intein Splicing Activity. [Related pubchem assays (depositor defined):AID2097, AID2223, AID489010, AID492950]; format: functional
T6 sequence (P9WHJ3 whole entry): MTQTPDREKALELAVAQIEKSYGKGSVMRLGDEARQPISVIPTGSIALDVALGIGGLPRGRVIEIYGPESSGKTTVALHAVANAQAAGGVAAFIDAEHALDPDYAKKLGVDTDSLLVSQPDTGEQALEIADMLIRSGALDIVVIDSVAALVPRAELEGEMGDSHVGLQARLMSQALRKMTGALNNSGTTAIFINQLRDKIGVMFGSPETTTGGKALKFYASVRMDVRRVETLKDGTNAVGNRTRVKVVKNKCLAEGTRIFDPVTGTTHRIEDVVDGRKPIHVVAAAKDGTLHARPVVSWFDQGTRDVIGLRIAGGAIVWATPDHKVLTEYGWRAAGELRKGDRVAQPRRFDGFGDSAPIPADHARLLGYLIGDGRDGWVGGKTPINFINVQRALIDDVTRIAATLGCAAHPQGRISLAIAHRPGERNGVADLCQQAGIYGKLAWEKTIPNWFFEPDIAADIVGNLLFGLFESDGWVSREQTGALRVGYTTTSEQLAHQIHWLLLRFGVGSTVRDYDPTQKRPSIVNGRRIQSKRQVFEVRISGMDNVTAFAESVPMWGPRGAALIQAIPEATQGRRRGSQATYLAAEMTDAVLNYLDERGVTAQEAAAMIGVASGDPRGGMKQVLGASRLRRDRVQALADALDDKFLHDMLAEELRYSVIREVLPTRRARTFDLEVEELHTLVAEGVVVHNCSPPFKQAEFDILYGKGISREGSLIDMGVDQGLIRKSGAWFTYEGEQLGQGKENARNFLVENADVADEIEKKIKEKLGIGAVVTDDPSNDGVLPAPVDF

H4 = experiment: Luminescence Cell-Based Dose Response HTS to Identify Activators of 5'UTR Stem-Loop Driven Prion Protein mRNA Translation in H4 Neuroglioblastoma Cells. [Related pubchem assays: 1829 (Project Summary), 1814 (Primary HTS)]; format: functional; details: Homo sapiens
[6] = Luminescence Cell-Based Dose Response HTS to Identify Activators of Luciferase Translation or Activity in H4 […] Cells. [Related pubchem assays: 1829 (Project Summary), 1814 (Primary HTS)]; format: functional

Paired box protein Pax-8, sequence (Q06710 whole entry): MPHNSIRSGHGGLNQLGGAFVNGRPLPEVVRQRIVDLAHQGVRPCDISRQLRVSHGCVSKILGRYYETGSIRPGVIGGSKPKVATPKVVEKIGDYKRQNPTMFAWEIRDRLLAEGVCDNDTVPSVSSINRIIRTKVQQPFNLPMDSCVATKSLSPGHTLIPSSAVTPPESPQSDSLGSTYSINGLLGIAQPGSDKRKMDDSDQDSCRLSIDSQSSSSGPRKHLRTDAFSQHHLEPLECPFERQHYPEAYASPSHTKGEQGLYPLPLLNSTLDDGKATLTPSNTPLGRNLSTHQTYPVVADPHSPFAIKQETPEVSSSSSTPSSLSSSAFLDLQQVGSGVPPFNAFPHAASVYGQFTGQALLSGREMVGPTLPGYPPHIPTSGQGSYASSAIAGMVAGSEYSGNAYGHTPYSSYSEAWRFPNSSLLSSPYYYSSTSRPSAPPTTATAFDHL

Structure (SMILES) | IC50 (Protein skinhead-1) | CC50 [3] | further results
O=S(=O)(Cc1ccc(Cl)cc1)Oc1ccc(Cl)cc1 | > 100 µM (inactive) | – | –
COc1ccc(C(c2nnnn2Cc2ccccc2)N2CCC(n3c(O)nc4ccccc43)CC2)cc1 (stereo not given) | – | – | AC50 (Paired box protein Pax-8): 6.91 µM (active)
COc1cccc(-n2c(SCC(=O)NCC3CCCO3)nc3c(c2=O)SCC3)c1 (stereo not given) | – | – | EC50 [1]: > 195 µM (not active)
CN(C)c1ccc(/C=N/NC(=O)c2ccccc2Cl)cc1 | – | – | EC50 [1]: > 195 µM (not active)
COc1ccc(C2CC(c3ccccc3)=NN2C(=O)c2cccs2)cc1 (stereo not given) | > 100 µM (inactive) | – | EC50 (Streptococcus): 12.4 µM (active); EC50 (Streptokinase A): > 150 µM (not active); EC50 [2]: 4.88 µM (active)
CC(C)CCNC(=O)NC(=O)COc1c(F)c(F)cc(F)c1F | > 100 µM (inactive) | – | –
O=C(NCc1ccco1)c1sc2cc(Cl)ccc2c1Cl | > 100 µM (inactive) | – | –
CC1Cc2ccccc2N1S(=O)(=O)c1cccc(C(=O)NC2CC2)c1 (stereo not given) | – | > 50 µM (active) | –
CSCC[C@H](N)C(=O)N1CCC(C(=O)N[C@@H](Cc2c[nH]c3ccccc23)C(=O)O)CC1 | > 100 µM (inactive) | – | –
CC(=O)N1CCN(c2ccc(NCc3ccc(C(C)C)cc3)cc2)CC1 | > 100 µM (inactive) | – | IC50 [4]: 10.4 µM (active)
CC(C)C(c1nnnn1Cc1ccco1)N1CCN(C2CCCC2)CC1 (stereo not given) | > 100 µM (inactive) | – | –
CC(=O)c1ccc(NCC2COc3ccccc3O2)c([N+](=O)[O-])c1 (stereo not given) | – | > 50 µM (active) | –
CN1/C(=C\C(=O)Nc2cccc(Cl)c2)C(C)(C)c2ccccc21 | > 100 µM (inactive) | – | –
Cc1cc(O)ccc1Nc1nc(-c2cccs2)cs1 | – | 21 µM (active) | IC50 [4]: 46.5 µM (active); AC50 [5]: 13.2 µM (active); EC50 (Protein RecA): 11.5 µM (active)
Cc1ccc2c(c1)CCCN2C(=O)CSc1ccccc1 | – | 47.2 µM (active) | –
O=C(Nc1ccc2c(c1)CCC2)c1ccc(Cl)nc1 | – | 36.7 µM (active) | –
Cc1[nH]c2ccccc2c1SCc1ccccc1 | 42.6 µM (active) | – | –
O=C1C=C(c2ccc3ncccc3c2)C[C@@H](c2ccc(F)cc2)C1 | – | 30 µM (active) | –
COc1ccccc1C(=O)Nc1ccc2c(c1)nc(CCNC(=O)c1ccccc1)n2C | > 100 µM (inactive) | – | –
Fc1ccc(N2CCN(c3cnc4ccccc4n3)CC2)cc1 | 72.8 µM (inactive) | – | EC50 (H4): 12.8 µM (active); EC50 [6]: 0.244 µM (active)
COc1ccc2nc(-c3ccc(Cl)cc3)cc(C(=O)O)c2c1 | – | 19.9 µM (active) | –
Cc1cc(Nc2ccccc2C(=O)O)n(-c2cccc(Cl)c2)n1 | – | 30.9 µM (active) | –
C/C(=N\NC(=O)C1CC1)c1ccc(Cl)c(Cl)c1 | – | > 50 µM (active) | –
O=S(=O)(c1ccccc1C(F)(F)F)N1CCC(c2nc(O)c3nnn(Cc4cccc(F)c4)c3n2)CC1 | – | 32.2 µM (active) | –
CCCCCOC(=O)c1ccc(NC(=O)c2ccco2)cc1 | > 100 µM (inactive) | – | –
Cn1nccc1C(=O)N1CCC(Cc2ccccc2)CC1 | > 100 µM (inactive) | – | –
